Legend:
corneal neovessels = assay: Experimentally induced corneal neovascularization (N-heptanol scrub): PDT closure of corneal neovessels, fluorescein angiography out to 28 days; assay type: in vivo, Sprague Dawley rats; details: corneal neovessels induced by n-heptanol scrub, rats; light dose 20 J/cm^2 at optimal excitation wavelength; optimal drug dose and time interval per compound; grade by corneal fluorescein angiography (neovessel-free area)
Method: The chlorin e6molecules were evaluated in a series of preclinical ocular neovessel models, corneal neovascularization, normal choriocapillaris vessels, and choroidal neovascularization. […] The chemical scrub was used to remove the corneal epithelium and stem cells, allowing the neovessels to grow across the entire cornea. PDT was performed at approximately 3 weeks after the chemical scrub when the neovessels formed a uniform network across the cornea. The PDT treatment was applied to the corneal surface with a laser wavelength that was optimized for the given absorption spectrum. The laser energy was coupled through a slit lamp biomicroscope with a slit lamp adapter. A 3.0 mm spot size was used (Area=7.07 mm^2). The light dose delivered was varied from 5-25 J/cm^2. The efficacy of neovessel closure was evaluated by measuring the area of treated cornea that remained neovessel-free out to 28 days following PDT. Accurate area measurements were taken using fluorescein angiography and measuring the area of neovessel-free cornea.

choriocapillaris = assay: Normal choriocapillaris rabbit model: PDT vessel closure out to 28 days, fluorescein angiography; assay type: in vivo; details: pigmented rabbit, intravenous, light dose 20 J/cm^2, optimal drug dose and time interval per compound, grade by fluorescein angiography
Method: The chlorin e6molecules were evaluated in a series of preclinical ocular neovessel models, corneal neovascularization, normal choriocapillaris vessels, and choroidal neovascularization.
Selected chlorin e6 molecules were also evaluated in a normal choriocapillaris model in the pigmented rabbit. […] The selected photosensitizers were administered intravenously at varying drug doses, the light dose was set constant at 20 J/cm^2, and the time interval was varied from 5-30 minutes between drug and light administration. Two PDT treatment areas were placed on the fundus of each eye in each rabbit. Fluorescein angiography was used to evaluate vessel closure following PDT out to 28 days.

[1] = system: choroidal neovascularization lesions; assay: Laser-induced choroidal neovascularization (CNV) model: PDT closure of CNV lesions, fluorescein angiography and histopathology; assay type: in vivo, rats
Method: Two of the chlorin e6molecules, (39) and (106), were evaluated in a laser-induced choroidal neovascularization (CNV) model in rats. Laser photocoagulation was used to stimulate choroidal neovessel growth on the fundus of the rat (E. T. Dobi, C. Puliafito, M. A. Destro, “A new model of experimental choroidal neovascularization in the rat”, Arch. Ophthalmol. 1989; 107: 264-269). The PDT treatments were performed approximately 4 weeks after the laser photocoagulation, which was when the choroidal neovascularization lesions were fully developed. The lesions were PDT treated using a 1.2 mm spot which covered the entire CNV lesion. Fluorescein angiography and histopathology were used to evaluate the CNV closure.

Row | Structure (SMILES) | Extent of neovessel closure at 28 days after treatment (corneal neovessels) | Closure at 28 Days (choriocapillaris) | CNV closure (fluorescein angiography) ([1]; 0.8 & 1.6 μmoles/kg, 10-20 minutes time interval post injection, 7 days after PDT) | CNV closure (fluorescein angiography) ([1]; 0.75 μmoles/kg, 20 minutes time interval post injection, 7 days post PDT)
1 | C=Cc1c(C)c2cc3nc(c(CC(=O)OC)c4[nH]c(cc5nc(cc1[nH]2)C(C)=C5CC)c(C)c4C(=O)NCCCO)C(CCC(=O)OC)C3C (centres unmarked) [Compound 30, 3-[[(3-hydroxypropyl)amino]carbonyl]-13-ethenyl-18-ethyl-7,8-dihydro-5-(2-methoxy-2-oxoethyl)-2,8,12,17-tetramethyl-21H, 23H-Porphine-7-propionic acid, methyl ester] | 2 (2 = 1.1-2.0 mm^2) | 3 (3 = 51-75%) |  | 
2 | C=Cc1c(C)c2cc3nc(c(CC(=O)OC)c4[nH]c(cc5nc(cc1[nH]2)C(C)=C5CC)c(C)c4C(=O)NCCCOC(C)=O)C(CCC(=O)OC)C3C (centres unmarked) [Compound 34, 3-[[(3-acetoxypropyl)amino]carbonyl]-13-ethenyl-18-ethyl-7,8-dihydro-5-(2-methoxy-2-oxoethyl)-2,8,12,17-tetramethyl-21H, 23H-Porphine-7-propionic acid, methyl ester] | 1 (1 = 0.21-1.0 mm^2) | 3 (3 = 51-75%) |  | 
3 | C=Cc1c(C)c2cc3nc(c(CC(=O)OC)c4[nH]c(cc5nc(cc1[nH]2)C(C)=C5CC)c(C)c4C(=O)NCCOCCO)C(CCC(=O)OC)C3C (centres unmarked) [Compound 39, 3-[[(5-hydroxy-3-oxa-pentyl)amino]carbonyl]-13-ethenyl-18-ethyl-7,8-dihydro-5-(2-methoxy-2-oxoethyl)-2,8,12,17-tetramethyl-21H, 23H-Porphine-7-propionic acid, methyl ester] | 1 (1 = 0.21-1.0 mm^2) | 4 (4 > 75%) | closed the CNV lesion | 
4 | C=Cc1c(C)c2cc3nc(c(CCO)c4[nH]c(cc5nc(cc1[nH]2)C(C)=C5CC)c(C)c4C(=O)NCCOCCO)C(CCCO)C3C (centres unmarked) [Compound 43, 7-(3-hydroxypropyl)-3-[[(5-hydroxy-3-oxa-pentyl)amino]carbonyl]-13-ethenyl-18-ethyl-7,8-dihydro-5-(2-hydroxyethyl)-2,8,12,17-tetramethyl-21H, 23H-Porphine] | 1 (1 = 0.21-1.0 mm^2) |  |  | 
5 | C=Cc1c(C)c2cc3nc(c(CC(=O)OC)c4[nH]c(cc5nc(cc1[nH]2)C(C)=C5CC)c(C)c4C(=O)NCCOCCOC(C)=O)C(CCC(=O)OC)C3C (centres unmarked) [Compound 45, 3-[[(5-acetoxy-3-oxa-pentyl)amino]carbonyl]-13-ethenyl-18-ethyl-7,8-dihydro-5-(2-methoxy-2-oxoethyl)-2,8,12,17-tetramethyl-21H, 23H-Porphine-7-propionic acid, methyl ester] | 1 (1 = 0.21-1.0 mm^2) | 3 (3 = 51-75%) |  | 
6 | CCC1=C(C)c2cc3[nH]c(cc4nc(c(CC(=O)OC)c5[nH]c(cc1n2)c(C)c5C(=O)NCCCO)C(CCC(=O)OC)C4C)c(C)c3C(C)=O (centres unmarked) [Compound 101, 3-[[(3-hydroxypropyl]amino]carbonyl]-13-acetyl-18-ethyl-7,8-dihydro-5-(2-methoxy-2-oxoethyl)-2,8,12,17-tetramethyl-21H, 23H-Porphine-7-propionic acid, methyl ester] | 0 (0 = 0-0.2 mm^2) |  |  | 
7 | CCC1=C(C)c2cc3[nH]c(cc4nc(c(CC(=O)OC)c5[nH]c(cc1n2)c(C)c5C(=O)NCCOCCO)C(CCC(=O)OC)C4C)c(C)c3C(C)=O (centres unmarked) [Compound 106, 3-[[(5-hydroxy-3-oxa-pentyl)amino]carbonyl]-13-acetyl-18-ethyl-7,8-dihydro-5-(2-methoxy-2-oxoethyl)-2,8,12,17-tetramethyl-21H, 23H-Porphine-7-propionic acid, methyl ester] | 1 (1 = 0.21-1.0 mm^2) | 4 (4 > 75%) |  | demonstrated CNV closure

— US20050020559A1, “Chlorin photosensitizing agents for use in photodynamic therapy” (priority 2001, published 2005)
